The target in this test is T1, human glucose-6-phosphate transporter (G6PT) (Homo sapiens, UniProt O43826, W138F).
T1 sequence (O43826 1-429 W138F): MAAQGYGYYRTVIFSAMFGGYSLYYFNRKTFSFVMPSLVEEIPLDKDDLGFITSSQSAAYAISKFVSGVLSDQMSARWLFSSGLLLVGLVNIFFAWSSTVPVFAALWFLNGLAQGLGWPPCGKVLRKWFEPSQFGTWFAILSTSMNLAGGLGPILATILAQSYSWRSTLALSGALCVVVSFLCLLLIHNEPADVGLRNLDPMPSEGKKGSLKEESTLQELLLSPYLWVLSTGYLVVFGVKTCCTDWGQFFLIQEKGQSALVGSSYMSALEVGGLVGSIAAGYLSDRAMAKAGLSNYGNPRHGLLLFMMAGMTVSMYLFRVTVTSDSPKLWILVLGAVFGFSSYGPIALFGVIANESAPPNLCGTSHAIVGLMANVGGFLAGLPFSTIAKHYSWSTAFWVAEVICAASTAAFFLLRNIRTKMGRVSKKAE
T1 sequence (P35575 1-357 partner): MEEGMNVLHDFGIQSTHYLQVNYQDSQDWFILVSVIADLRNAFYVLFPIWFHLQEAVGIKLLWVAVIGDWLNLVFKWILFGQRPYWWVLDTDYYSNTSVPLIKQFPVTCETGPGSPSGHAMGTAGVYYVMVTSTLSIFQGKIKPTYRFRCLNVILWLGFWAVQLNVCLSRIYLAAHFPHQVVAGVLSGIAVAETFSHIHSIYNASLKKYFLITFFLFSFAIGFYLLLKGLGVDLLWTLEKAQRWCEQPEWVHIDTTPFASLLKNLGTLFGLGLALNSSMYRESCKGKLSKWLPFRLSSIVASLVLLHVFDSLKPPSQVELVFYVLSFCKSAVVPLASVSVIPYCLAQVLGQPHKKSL
Type of test: cell-based.

`O=C(/C=C/c1ccc(O)c(O)c1)O[C@@H]1C[C@](O)(C(=O)O)C[C@@H](O)[C@H]1O` [CHA, chlorogenic acid]: 523 ± 210 µM corresponded to half-maximal inhibition (IC50).

One may read the IC50 as the midpoint of a concentration-inhibition curve.

The values above are taken from publication PMC12552596 (Nature Communications, 2025).
